We go through three molecules from PubChem BioAssay AID1259407 (Chemical Carcinogenesis Research Information System (CCRIS), 2018).

This series has as its system CCRIS mutagenicity, Ames/micronucleus/aberration tests. Briefly: CCRIS mutagenicity studies.

Active and inactive are the calls of the source. How the calls were made is not given here.

In the case of `Cc1ccccc1Br`, the mutagenic call (Test System: AMES SALMONELLA TYPHIMURIUM, Strain/Indicator: TA97, Metabolic Activation: HAMSTER, LIVER, S-9, AROCLOR 1254 (10%), Method: PREINCUBATION) is “inactive; negative”; the mutagenic call (Test System: AMES SALMONELLA TYPHIMURIUM, Strain/Indicator: TA97, Metabolic Activation: HAMSTER, LIVER, S-9, AROCLOR 1254 (30%), Method: PREINCUBATION) is “inactive; negative”; the mutagenic call (Test System: AMES SALMONELLA TYPHIMURIUM, Strain/Indicator: TA97, Metabolic Activation: NONE, Method: PREINCUBATION) is “inactive; negative”; the mutagenic call (Test System: AMES SALMONELLA TYPHIMURIUM, Strain/Indicator: TA97, Metabolic Activation: RAT, LIVER, S-9, AROCLOR 1254 (10%), Method: PREINCUBATION) was “inactive; negative”; the mutagenic call (Test System: AMES SALMONELLA TYPHIMURIUM, Strain/Indicator: TA97, Metabolic Activation: RAT, LIVER, S-9, AROCLOR 1254 (30%), Method: PREINCUBATION) is “inactive; negative”; the mutagenic call (Test System: AMES SALMONELLA TYPHIMURIUM, Strain/Indicator: TA98, Metabolic Activation: HAMSTER, LIVER, S-9, AROCLOR 1254 (10%), Method: PREINCUBATION) is “inactive; negative”. Further, the mutagenic call is “inactive; negative” (Test System: AMES SALMONELLA TYPHIMURIUM, Strain/Indicator: TA98, Metabolic Activation: HAMSTER, LIVER, S-9, AROCLOR 1254 (30%), Method: PREINCUBATION); “inactive; negative” (Test System: AMES SALMONELLA TYPHIMURIUM, Strain/Indicator: TA98, Metabolic Activation: NONE, Method: PREINCUBATION); “inactive; negative” (Test System: AMES SALMONELLA TYPHIMURIUM, Strain/Indicator: TA98, Metabolic Activation: RAT LIVER S-9, PHENOBARBITAL AND BETA-NAPHTHOFLAVONE, Method: PREINCUBATION); “inactive; negative” (Test System: AMES SALMONELLA TYPHIMURIUM, Strain/Indicator: TA98, Metabolic Activation: RAT, LIVER, S-9, AROCLOR 1254 (10%), Method: PREINCUBATION); “inactive; negative” (Test System: AMES SALMONELLA TYPHIMURIUM, Strain/Indicator: TA98, Metabolic Activation: RAT, LIVER, S-9, AROCLOR 1254 (30%), Method: PREINCUBATION); “inactive; negative” (Test System: AMES SALMONELLA TYPHIMURIUM, Strain/Indicator: TA100, Metabolic Activation: HAMSTER, LIVER, S-9, AROCLOR 1254 (10%), Method: PREINCUBATION). In addition, the mutagenic call is “inactive; negative” (Test System: AMES SALMONELLA TYPHIMURIUM, Strain/Indicator: TA100, Metabolic Activation: HAMSTER, LIVER, S-9, AROCLOR 1254 (30%), Method: PREINCUBATION); “inactive; negative” (Test System: AMES SALMONELLA TYPHIMURIUM, Strain/Indicator: TA100, Metabolic Activation: NONE, Method: PREINCUBATION); “inactive; negative” (Test System: AMES SALMONELLA TYPHIMURIUM, Strain/Indicator: TA100, Metabolic Activation: RAT LIVER S-9, PHENOBARBITAL AND BETA-NAPHTHOFLAVONE, Method: PREINCUBATION); “inactive; negative” (Test System: AMES SALMONELLA TYPHIMURIUM, Strain/Indicator: TA100, Metabolic Activation: RAT, LIVER, S-9, AROCLOR 1254 (10%), Method: PREINCUBATION); “inactive; negative” (Test System: AMES SALMONELLA TYPHIMURIUM, Strain/Indicator: TA100, Metabolic Activation: RAT, LIVER, S-9, AROCLOR 1254 (30%), Method: PREINCUBATION); “inactive; negative” (Test System: AMES SALMONELLA TYPHIMURIUM, Strain/Indicator: TA102, Metabolic Activation: NONE, Method: PREINCUBATION). The mutagenic call by setting is: (Test System: AMES SALMONELLA TYPHIMURIUM, Strain/Indicator: TA102, Metabolic Activation: RAT LIVER S-9, PHENOBARBITAL AND BETA-NAPHTHOFLAVONE, Method: PREINCUBATION) “inactive; negative”; (Test System: AMES SALMONELLA TYPHIMURIUM, Strain/Indicator: TA104, Metabolic Activation: NONE, Method: PREINCUBATION) “inactive; negative”; (Test System: AMES SALMONELLA TYPHIMURIUM, Strain/Indicator: TA104, Metabolic Activation: RAT LIVER S-9, PHENOBARBITAL AND BETA-NAPHTHOFLAVONE, Method: PREINCUBATION) “inactive; negative”; (Test System: AMES SALMONELLA TYPHIMURIUM, Strain/Indicator: TA1535, Metabolic Activation: HAMSTER, LIVER, S-9, AROCLOR 1254 (10%), Method: PREINCUBATION) “inactive; negative”; (Test System: AMES SALMONELLA TYPHIMURIUM, Strain/Indicator: TA1535, Metabolic Activation: HAMSTER, LIVER, S-9, AROCLOR 1254 (30%), Method: PREINCUBATION) “inactive; negative”; (Test System: AMES SALMONELLA TYPHIMURIUM, Strain/Indicator: TA1535, Metabolic Activation: NONE, Method: PREINCUBATION) “inactive; negative”. Also, the mutagenic call (Test System: AMES SALMONELLA TYPHIMURIUM, Strain/Indicator: TA1535, Metabolic Activation: RAT LIVER S-9, PHENOBARBITAL AND BETA-NAPHTHOFLAVONE, Method: PREINCUBATION) was “inactive; negative”; the mutagenic call (Test System: AMES SALMONELLA TYPHIMURIUM, Strain/Indicator: TA1535, Metabolic Activation: RAT, LIVER, S-9, AROCLOR 1254 (10%), Method: PREINCUBATION) was “inactive; negative”; the mutagenic call (Test System: AMES SALMONELLA TYPHIMURIUM, Strain/Indicator: TA1535, Metabolic Activation: RAT, LIVER, S-9, AROCLOR 1254 (30%), Method: PREINCUBATION) is “inactive; negative”; the mutagenic call (Test System: AMES SALMONELLA TYPHIMURIUM, Strain/Indicator: TA1537, Metabolic Activation: HAMSTER, LIVER, S-9, AROCLOR 1254 (30%), Method: PREINCUBATION) was “inactive; negative”; the mutagenic call (Test System: AMES SALMONELLA TYPHIMURIUM, Strain/Indicator: TA1537, Metabolic Activation: NONE, Method: PREINCUBATION) is “inactive; negative”; the mutagenic call (Test System: AMES SALMONELLA TYPHIMURIUM, Strain/Indicator: TA1537, Metabolic Activation: RAT LIVER S-9, PHENOBARBITAL AND BETA-NAPHTHOFLAVONE, Method: PREINCUBATION) was “inactive; negative”. The mutagenic call is, setting by setting: (Test System: AMES SALMONELLA TYPHIMURIUM, Strain/Indicator: TA1537, Metabolic Activation: RAT, LIVER, S-9, AROCLOR 1254 (30%), Method: PREINCUBATION) “inactive; negative”; (Test System: E.COLI, Strain/Indicator: WP2UVRA/PKM101, Metabolic Activation: NONE, Method: PREINCUBATION) “inactive; negative”; (Test System: E.COLI, Strain/Indicator: WP2UVRA/PKM101, Metabolic Activation: RAT LIVER S-9, PHENOBARBITAL AND BETA-NAPHTHOFLAVONE, Method: PREINCUBATION) “inactive; negative”; (Test System: E.COLI, Strain/Indicator: WP2UVRA, Metabolic Activation: NONE, Method: PREINCUBATION) “inactive; negative”; (Test System: E.COLI, Strain/Indicator: WP2UVRA, Metabolic Activation: RAT LIVER S-9, PHENOBARBITAL AND BETA-NAPHTHOFLAVONE, Method: PREINCUBATION) “inactive; negative”.
In the case of `CC(=O)O.CC(=O)O.O.O.[O]=[U]=[O]`, the mutagenic call runs as follows: (Test System: Chinese hamster ovary, Strain/Indicator: AA8 (HPRT)/6-Thioguanine, Metabolic Activation: None, Method: Standard plate) “inactive; negative”; (Test System: Chinese hamster ovary, Strain/Indicator: EM9 (HPRT)/6-Thioguanine, Metabolic Activation: None, Method: Standard plate) “active; positive, em9 cho cells are xrcc1-deficient”.
On to `CCOC(=O)COc1ccc2c(=O)cc(-c3ccccc3)oc2c1`, for which the mutagenic call (Test System: AMES SALMONELLA TYPHIMURIUM, Strain/Indicator: TA98, Metabolic Activation: NONE, Method: STANDARD PLATE) is “inactive; negative”; the mutagenic call (Test System: AMES SALMONELLA TYPHIMURIUM, Strain/Indicator: TA98, Metabolic Activation: RAT, LIVER, S-9, PHENOBARBITAL, Method: STANDARD PLATE) is “inactive; negative”; the mutagenic call (Test System: AMES SALMONELLA TYPHIMURIUM, Strain/Indicator: TA100, Metabolic Activation: NONE, Method: STANDARD PLATE) was “inactive; negative”; the mutagenic call (Test System: AMES SALMONELLA TYPHIMURIUM, Strain/Indicator: TA100, Metabolic Activation: RAT, LIVER, S-9, PHENOBARBITAL, Method: STANDARD PLATE) was “inactive; negative”; the mutagenic call (Test System: AMES SALMONELLA TYPHIMURIUM, Strain/Indicator: TA1535, Metabolic Activation: NONE, Method: STANDARD PLATE) is “inactive; negative”; the mutagenic call (Test System: AMES SALMONELLA TYPHIMURIUM, Strain/Indicator: TA1535, Metabolic Activation: RAT, LIVER, S-9, PHENOBARBITAL, Method: STANDARD PLATE) was “inactive; negative”. For the same molecule, the mutagenic call is “inactive; negative” (Test System: AMES SALMONELLA TYPHIMURIUM, Strain/Indicator: TA1537, Metabolic Activation: NONE, Method: STANDARD PLATE); “inactive; negative” (Test System: AMES SALMONELLA TYPHIMURIUM, Strain/Indicator: TA1537, Metabolic Activation: RAT, LIVER, S-9, PHENOBARBITAL, Method: STANDARD PLATE); “inactive; negative” (Test System: AMES SALMONELLA TYPHIMURIUM, Strain/Indicator: TA1538, Metabolic Activation: NONE, Method: STANDARD PLATE); “inactive; negative” (Test System: AMES SALMONELLA TYPHIMURIUM, Strain/Indicator: TA1538, Metabolic Activation: RAT, LIVER, S-9, PHENOBARBITAL, Method: STANDARD PLATE).
